Assay results from ChEMBL document CHEMBL1125022, “Chiral modifications of dolastatin 10: the potent cytostatic peptide (19aR)-isodolastatin 10” (1990).
Converted amounts (≈) assume the structure as drawn.

These compounds were tested on P388 (assay: Effect against cell growth of the P388 lymphocytic leukemia (PS system)). Settings: Mus musculus, read-out: ED50 (the source's name).
Type: functional

With CC[C@@H](C)[C@@H]([C@@H](CC(=O)N1CCC[C@H]1[C@@H](OC)[C@@H](C)C(=O)N[C@@H](Cc1ccccc1)c1nccs1)OC)N(C)C(=O)[C@@H](NC(=O)[C@H](C(C)C)N(C)C)C(C)C as the compound, how does the EC50 read?
Its EC50 is 3.9 ng/mL (≈ 4.97 nM).

With CC[C@@H](C)[C@@H]([C@@H](CC(=O)N1CCC[C@H]1[C@H](OC)[C@H](C)C(=O)N[C@@H](Cc1ccccc1)c1nccs1)OC)N(C)C(=O)[C@@H](NC(=O)[C@H](C(C)C)N(C)C)C(C)C as the compound, how does the EC50 read?
Its EC50 is 5.6 ng/mL (≈ 7.13 nM).

CC[C@@H](C)[C@H]([C@H](CC(=O)N1CCC[C@H]1[C@H](OC)[C@@H](C)C(=O)N[C@@H](Cc1ccccc1)c1nccs1)OC)N(C)C(=O)[C@@H](NC(=O)[C@H](C(C)C)N(C)C)C(C)C was tested. Which EC50 did it give?
Its EC50 is 3.2 ng/mL (≈ 4.08 nM).

CCC(C)[C@H]([C@H](CC(=O)N1CCC[C@H]1[C@H](OC)[C@@H](C)C(=O)N[C@@H](Cc1ccccc1)c1nccs1)OC)N(C)C(=O)[C@@H](NC(=O)[C@H](C(C)C)N(C)C)C(C)C (some centres undefined) was tested. Which EC50 did it give?
The EC50 was 3.2 ng/mL (≈ 4.08 nM).

Which EC50 does the source give for CCC(C)[C@@H]([C@@H](CC(=O)N1CCC[C@H]1[C@H](OC)[C@H](C)C(=O)N[C@@H](Cc1ccccc1)c1nccs1)OC)N(C)C(=O)[C@@H](NC(=O)[C@H](C(C)C)N(C)C)C(C)C (some centres undefined) here?
Its EC50 is 1.6 ng/mL (≈ 2.04 nM).

How did the EC50 turn out when CCC(C)[C@H]([C@@H](CC(=O)N1CCC[C@H]1[C@H](OC)[C@H](C)C(=O)N[C@@H](Cc1ccccc1)c1nccs1)OC)N(C)C(=O)[C@@H](NC(=O)[C@H](C(C)C)N(C)C)C(C)C (some centres undefined) was run?
The EC50 was over 1000 ng/mL.

How did the EC50 turn out when CCC(C)[C@H]([C@H](CC(=O)N1CCC[C@H]1[C@H](OC)[C@H](C)C(=O)N[C@@H](Cc1ccccc1)c1nccs1)OC)N(C)C(=O)[C@@H](NC(=O)[C@H](C(C)C)N(C)C)C(C)C (some centres undefined) was run?
The EC50 was 270 ng/mL (≈ 344 nM).

For CCC(C)[C@@H]([C@H](CC(=O)N1CCC[C@H]1[C@H](OC)[C@H](C)C(=O)N[C@@H](Cc1ccccc1)c1nccs1)OC)N(C)C(=O)[C@@H](NC(=O)[C@H](C(C)C)N(C)C)C(C)C (some centres undefined), which EC50 is on record?
Its EC50 is 620 ng/mL (≈ 790 nM).

For CC[C@@H](C)[C@H]([C@H](CC(=O)N1CCC[C@H]1[C@@H](OC)[C@H](C)C(=O)N[C@@H](Cc1ccccc1)c1nccs1)OC)N(C)C(=O)[C@@H](NC(=O)[C@H](C(C)C)N(C)C)C(C)C, which EC50 is on record?
The EC50 was 630 ng/mL (≈ 802 nM).

CC[C@@H](C)[C@@H]([C@H](CC(=O)N1CCC[C@H]1[C@H](OC)[C@@H](C)C(=O)N[C@@H](Cc1ccccc1)c1nccs1)OC)N(C)C(=O)[C@@H](NC(=O)[C@H](C(C)C)N(C)C)C(C)C was tested. Which EC50 did it give?
Its EC50 is 600 ng/mL (≈ 764 nM).

CC[C@@H](C)[C@H]([C@H](CC(=O)N1CCC[C@H]1[C@@H](OC)[C@@H](C)C(=O)N[C@@H](Cc1ccccc1)c1nccs1)OC)N(C)C(=O)[C@@H](NC(=O)[C@H](C(C)C)N(C)C)C(C)C was tested. Which EC50 did it give?
The EC50 was 200 ng/mL (≈ 255 nM).

For CC[C@@H](C)[C@@H]([C@@H](CC(=O)N1CCC[C@H]1[C@H](OC)[C@@H](C)C(=O)N[C@@H](Cc1ccccc1)c1nccs1)OC)N(C)C(=O)[C@@H](NC(=O)[C@H](C(C)C)N(C)C)C(C)C, which EC50 is on record?
Its EC50 is 0.049 ng/mL (≈ 0.0624 nM).

CC[C@@H](C)[C@H]([C@H](CC(=O)N1CCC[C@H]1[C@H](OC)[C@H](C)C(=O)N[C@@H](Cc1ccccc1)c1nccs1)OC)N(C)C(=O)[C@@H](NC(=O)[C@H](C(C)C)N(C)C)C(C)C was tested. Which EC50 did it give?
Its EC50 is 150 ng/mL (≈ 191 nM).

For CC[C@@H](C)[C@@H]([C@H](CC(=O)N1CCC[C@H]1[C@H](OC)[C@H](C)C(=O)N[C@@H](Cc1ccccc1)c1nccs1)OC)N(C)C(=O)[C@@H](NC(=O)[C@H](C(C)C)N(C)C)C(C)C, which EC50 is on record?
The EC50 was 410 ng/mL (≈ 522 nM).

With CC[C@@H](C)[C@H]([C@@H](CC(=O)N1CCC[C@H]1[C@@H](OC)[C@H](C)C(=O)N[C@@H](Cc1ccccc1)c1nccs1)OC)N(C)C(=O)[C@@H](NC(=O)[C@H](C(C)C)N(C)C)C(C)C as the compound, how does the EC50 read?
Its EC50 is over 1000 ng/mL.

Which EC50 does the source give for CC[C@@H](C)[C@H]([C@@H](CC(=O)N1CCC[C@H]1[C@H](OC)[C@H](C)C(=O)N[C@@H](Cc1ccccc1)c1nccs1)OC)N(C)C(=O)[C@@H](NC(=O)[C@H](C(C)C)N(C)C)C(C)C here?
Its EC50 is over 1000 ng/mL.

For CC[C@@H](C)[C@@H]([C@@H](CC(=O)N1CCC[C@H]1[C@@H](OC)[C@H](C)C(=O)N[C@@H](Cc1ccccc1)c1nccs1)OC)N(C)C(=O)[C@@H](NC(=O)[C@H](C(C)C)N(C)C)C(C)C, which EC50 is on record?
Its EC50 is 39 ng/mL (≈ 49.7 nM).

How did the EC50 turn out when CC[C@@H](C)[C@@H]([C@H](CC(=O)N1CCC[C@H]1[C@@H](OC)[C@H](C)C(=O)N[C@@H](Cc1ccccc1)c1nccs1)OC)N(C)C(=O)[C@@H](NC(=O)[C@H](C(C)C)N(C)C)C(C)C was run?
The EC50 was over 1000 ng/mL.

For CC[C@H](C)[C@@H]([C@@H](CC(=O)N1CCC[C@H]1[C@H](OC)[C@@H](C)C(=O)N[C@@H](Cc1ccccc1)c1nccs1)OC)N(C)C(=O)[C@@H](NC(=O)[C@H](C(C)C)N(C)C)C(C)C [DOLASTATIN-10], which EC50 is on record?
Its EC50 is 1 ng/mL (≈ 1.27 nM).
